The values below come from patent US20120107861A1, “METHOD OF DETERMINING RISK OF ARRHYTHMIA” (priority 2010, published 2012).

Read-outs that look alike come from different tables or passages of the source.

The test system of one data set is TdP. To be noted: clinical; cited from earlier work.
The conditions of data set [1]: maximum therapeutic plasma concentration, cited from earlier work.
Data set [2] concerns human iPSC-derived cardiomyocytes (iCells). The procedure:
Cell Culture. hiPSC-derived cardiomyocytes (iCells) from Cellular Dynamics International (CDT) were thawed in Plating Media (CDI and plated as single cells onto 0.1% Gelatin (Sigma)-coated, 6-well tissue-culture plates (Corning) at a density of 2.2−2.7×10^6 cells per well. Cells were cultured for 3-5 d at 37° C., 7% CO2 prior to re-plating onto xCELLigence® 96-well cardio e-plates (ACEA/Roche Applied Sciences) or microelectrode arrays (MEAs, Multichannel Systems). The media was changed every 2 d after plating using Maintenance Media (CDI), pre-warmed to 37° C. to minimize the temperature shock on cells.
xCELLigence® cardio e-plates and MEA Re-plating. iCells cultured in 6-well plates were harvested by twice washing in dPBS (GIBCO) then lifted with 0.5% Trypsin-EDTA (GIBCO), incubated at 37° C., 7% CO2. Trypsin was quenched with Maintenance Media and cells were collectively centrifuged at 69 g for 5 minutes and resuspended in Maintenance Media to yield the target density. For cardio e-plate reseeding, cells were plated at a target density of 5×10^4 per well, estimating 80% seeding efficiency. Cardio e-plates were coated with 0.1% Gelatin for 3 h at 37° C. Background impedance measurements for cardio e-plates were made with the final volume of media equilibrated to 37° C. but without cells, immediately prior to reseeding the cells. The cells were monitored every 1 h by a 20 s sweep duration by the xCELLigence® RTCA cardio system at its maximum sampling rate (77 Hz) prior to initiating experimentation.
xCELLigence® and MEA Experimentation. Compound stocks were prepared in DMSO or dH2O at 1000 fold the highest tested concentration. For xCELLigence® experimentation, compound stocks were serially diluted in Maintenance Media in a separate 96-well tissue culture plate (Corning) at twice the target concentration. The dilution plate was incubated and equilibrated to 37° C. prior to cell exposure. […] All compounds were tested as n≧3 on multiple cardio e-plates. The xCELLigence® monitored changes to the beating for periodic 20 s sweep durations at 77 Hz.
Data Analysis. Data were first analyzed by the built-in analysis modules of xCELLigence® and MEAs systems, initial results were then exported into in-house developed Microsoft Excel templates for further semi-auto analysis. […] To calculate the “Predicted Proarrhythmic Score” (PPS), we first determined a “Irregular Beat Ratio” (IBR). The IBR was defined as the ratio of arrhythmic beat counts to the total number of beats over one minute. IBR values for each concentration at each selected time-point was averaged from 3 to 5 e-plates. The lowest concentration of drug, that generated a IBR value ≧0.2 was determined and termed “IB20.” Finally, the maximal therapeutic plasma concentration (Cmax) was divided by the IB20 to arrive at the PPS. A PPS >100 is a level of concern for drug-induced arrhythmia. […]

The target of the next data set is hERG channel (Homo sapiens, UniProt Q12809). The note with it: cited from earlier work.
Chain of hERG channel (Q12809 whole entry): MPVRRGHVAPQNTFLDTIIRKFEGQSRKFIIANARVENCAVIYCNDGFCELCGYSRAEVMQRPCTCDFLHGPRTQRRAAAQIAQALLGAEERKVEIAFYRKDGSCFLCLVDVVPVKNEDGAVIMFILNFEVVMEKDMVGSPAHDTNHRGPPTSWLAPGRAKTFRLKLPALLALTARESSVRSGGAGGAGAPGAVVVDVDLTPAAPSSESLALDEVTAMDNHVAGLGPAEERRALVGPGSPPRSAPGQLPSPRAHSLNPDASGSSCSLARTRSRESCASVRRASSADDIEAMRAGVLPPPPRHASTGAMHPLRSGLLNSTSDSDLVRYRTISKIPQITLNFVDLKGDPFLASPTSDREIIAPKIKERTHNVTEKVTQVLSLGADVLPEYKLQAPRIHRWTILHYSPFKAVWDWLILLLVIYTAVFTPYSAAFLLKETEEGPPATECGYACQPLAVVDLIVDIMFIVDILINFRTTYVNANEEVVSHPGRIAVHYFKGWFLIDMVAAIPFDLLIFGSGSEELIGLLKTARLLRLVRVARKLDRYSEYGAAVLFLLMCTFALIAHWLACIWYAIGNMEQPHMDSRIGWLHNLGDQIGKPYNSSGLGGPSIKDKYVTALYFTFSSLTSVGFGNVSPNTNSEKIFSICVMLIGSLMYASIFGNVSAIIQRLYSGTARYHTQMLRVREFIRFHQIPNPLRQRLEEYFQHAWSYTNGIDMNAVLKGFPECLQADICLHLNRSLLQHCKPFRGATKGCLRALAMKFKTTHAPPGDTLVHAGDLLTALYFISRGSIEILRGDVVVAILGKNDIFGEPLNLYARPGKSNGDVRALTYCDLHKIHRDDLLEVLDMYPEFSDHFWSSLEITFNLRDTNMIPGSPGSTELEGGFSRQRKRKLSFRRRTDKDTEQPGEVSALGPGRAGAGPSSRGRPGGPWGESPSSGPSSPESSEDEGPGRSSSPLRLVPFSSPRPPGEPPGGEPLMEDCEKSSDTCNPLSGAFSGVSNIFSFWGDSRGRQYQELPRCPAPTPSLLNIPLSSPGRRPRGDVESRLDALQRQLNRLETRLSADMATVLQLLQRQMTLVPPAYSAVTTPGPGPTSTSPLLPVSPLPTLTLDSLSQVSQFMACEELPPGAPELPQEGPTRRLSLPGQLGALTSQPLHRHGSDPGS
The test system of another data set is QT interval. The note with it: in patients / in vivo; cited from earlier work.

A word on the Cmax: it is the maximum level reached in the sampled fluid or tissue. With `COc1ccccc1OCC(O)CN1CCN(CC(=O)Nc2c(C)cccc2C)CC1` (stereo not drawn) [Ranolazine], the “TdP liability” value in the data set with TdP was “free of TdP”. Also, the Cmax in data set [1] (Table I) and in data set [1] (Table II) was 6.01 µM throughout. Besides, the “alterations in beat patterns / arrhythmic beats” value in data set [2] is recorded as “not torsadogenic”. At hERG channel, the “hERG inhibition” value is given as “inhibit hERG”. For the same compound, in the data set on QT interval, the “QT prolongation” value was “induce QT prolongation”.
